Measured values reported in article PMC4859512, “Polyamino-Isoprenic Derivatives Block Intrinsic Resistance of P. aeruginosa to Doxycycline and Chloramphenicol In Vitro” (PLoS ONE, 2016).
Residues, ends and D or L forms follow the SMILES beside them. *: point of attachment. βNA = c1ccc2cc(N*)ccc2c1

Tests used:
Assay type in all cases: cell-based, Pseudomonas aeruginosa
[1] = system: P. aeruginosa CMZ091 (Mex XY overproducer); assay: Antibiotic susceptibility testing (broth micro-dilution MIC), strain CMZ091; conditions: CMZ091
Experimental: (§1) Experiments were performed on the BAC-SCREEN platform of the UMR-MD1, with a Freedom EVO 150 liquid handling system (Tecan, Lyon, France).
(§2) We concluded that compound 3 was the best compound and suitable for a more detailed study. The same experiment was performed using chloramphenicol (4 mg/L) in combination with 3 (10 μM final concentration). Amongst the 20 clinical isolates, the growth of 15 (75%) was impaired, while 5 (25%) were resistant (data not shown). These experiments were performed to study the effect of our compounds on the natural resistance of P. aeruginosa. In addition, we were wondering if compound 3 could also increase susceptibility to other antibiotic families including ß-Lactams, fluoroquinolones and aminoglycosides, that are representative of the main classes of anti-pseudomonal agents. Experiments were performed with the ß-lactams ceftazidime and ticarcillin and ciprofloxacin and amikacin. […] . […] To better characterize compound 3, we first searched for the minimum concentration of compound that allowed killing of bacteria by doxycycline, and PAßN was used as the reference molecule.

[2] = system: P. aeruginosa PT629 (Mex AB overproducer); assay: Antibiotic susceptibility testing (broth micro-dilution MIC), strain PT629; conditions: PT629
Experimental: as §1, §2

P. aeruginosa PA01 [3] = assay: Checkerboard assay with doxycycline; conditions: PA01
Experimental: Serial two-fold dilutions of antimicrobial agents were mixed together in a microtiter plate. The range of concentration of each drug was twice the MIC, down to the eleventh serial two-fold dilutions below this amount. Doxycycline was serially diluted along the X-axis, and the polyamino-isoprenic compound or PAßN was diluted along the Y-axis as indicated. Each well was inoculated with a bacterial inoculum of 5 x 10^5 CFU/ml, and the plates were incubated at 37°C for 18 h under aerobic conditions. Each plate also contained a row and a column in which a serial dilution of polyamino-isoprenic compound or doxycycline, respectively, was present alone to determine the MIC. The FIC index was calculated as follows: FIC index = FIC A + FIC B, where FIC A is the MIC of drug A in the combination/MIC of drug A alone and FIC B is the MIC of drug B in the combination/MIC of drug B alone. The combination was considered synergistic when the FIC index is ≤0.5, and antagonistic when the FIC index is > 4 [26].

P. aeruginosa PA01 (wt) = assay: Antibiotic susceptibility testing (broth micro-dilution MIC), strain PA01; conditions: PA01
Experimental: as §1
(§3) The same experiment was performed using chloramphenicol (4 mg/L) in combination with 3 (10 μM final concentration). […] These experiments were performed to study the effect of our compounds on the natural resistance of P. aeruginosa. […] Experiments were performed with the ß-lactams ceftazidime and ticarcillin and ciprofloxacin and amikacin.

P. aeruginosa PA01 [4] = assay: Comparison of efficiency between compounds and PAßN (compound gradient with 2 mg/L doxycycline); conditions: PA01, doxycycline 2 mg/L, 18 h
Experimental: Serial dilutions of each compound (from 270 μM to 0.95 μM for PAßN and from 135 μM to 0.06 μM for 3) were prepared in microplates. Doxycycline (2 mg/L) was then added to each well before inoculation of bacteria (5x10^5 cfu/mL). Optical density (600 nm) was measured after 18 hours at 37°C. Only the relevant part of the graphs are shown. Experiments were performed in triplicate.
First, we performed a checkerboard assay to analyze the synergy between doxycycline and the polyamino-isoprenic compound and between doxycycline and PAβN. For both, compound 3 and PAβN we observed a synergistic inhibition of growth when combined with doxycycline with a FIC Index of 0.09 (S2 Table). […] PAßN is generally used at a concentration greater than 10 μM to inhibit the resistance of P. aeruginosa with respect to various antibiotics, and, to our knowledge, no data have been reported in the literature on its use in combination with doxycycline. The percentage of growth inhibition was monitored as a function of compound concentration, and the results are presented in Fig 3.

[5] = system: P. aeruginosa PA01 ERY^R (Mex CD overproducer); assay: microbe, parasite or virus in culture; conditions: PA01 ERY R
Experimental: as §1, §3

[6] = system: P. aeruginosa PA0-7H (Mex EF overproducer); assay: Antibiotic susceptibility testing (broth micro-dilution MIC), strain PA0-7H; conditions: PA0-7H
Experimental: as §1, §2

[7] = doxycycline MIC in the combination 0.125 µg/ml
[8] = doxycycline MIC in the combination 0.25 µg/ml
[9] = doxycycline MIC in the combination 0.5 µg/ml
[10] = doxycycline MIC in the combination 1 µg/ml
[11] = doxycycline MIC in the combination 2 µg/ml
[12] = doxycycline MIC in the combination 4 µg/ml
[13] = doxycycline MIC in the combination 8 µg/ml
[14] = doxycycline MIC in the combination 16 µg/ml

NC(N)=NCCC[C@H](NC(=O)[C@@H](N)Cc1ccccc1)C(=O)Nc1ccc2ccccc2c1 [PAßN, Phenylalanine-Arginine Beta-Naphthylamide, reference compound] (H-Phe-Arg-βNA)
MIC of Amikacin in the presence of the compound ([1]; compound 10µM): 64 µg/mL | MIC of Ceftazidime in the presence of the compound ([1]; compound 10µM): 2 µg/mL | MIC of Ciprofloxacin in the presence of the compound ([1]; compound 10µM): 0.5 µg/mL | MIC of Ticarcillin in the presence of the compound ([1]; compound 10µM): 16 to 32 µg/mL | MIC of Amikacin in the presence of the compound ([1]; compound 30µM): 32 to 64 µg/mL | MIC of Ceftazidime in the presence of the compound ([1]; compound 30µM): 2 µg/mL | MIC of Ciprofloxacin in the presence of the compound ([1]; compound 30µM): 0.25 µg/mL | MIC of Ticarcillin in the presence of the compound ([1]; compound 30µM): 16 to 32 µg/mL | MIC of Amikacin in the presence of the compound ([2]; compound 10µM): 4 µg/mL | MIC of Ceftazidime in the presence of the compound ([2]; compound 10µM): 8 µg/mL | MIC of Ciprofloxacin in the presence of the compound ([2]; compound 10µM): 0.5 µg/mL | MIC of Ticarcillin in the presence of the compound ([2]; compound 10µM): > 64 µg/mL | MIC of Amikacin in the presence of the compound ([2]; compound 30µM): 4 to 8 µg/mL | MIC of Ceftazidime in the presence of the compound ([2]; compound 30µM): 2 to 4 µg/mL | MIC of Ciprofloxacin in the presence of the compound ([2]; compound 30µM): 0.5 µg/mL | MIC of Ticarcillin in the presence of the compound ([2]; compound 30µM): > 64 µg/mL | Concentration of compound associated (P. aeruginosa PA01 [3]; [7]): 128 µM | Effect (P. aeruginosa PA01 [3]; [7]): Synergistic (synergistic when the FIC index is ≤0.5) | FIC index (P. aeruginosa PA01 [3]; [7]): 0.13 | Concentration of compound associated (P. aeruginosa PA01 [3]; [8]): 32 µM | Effect (P. aeruginosa PA01 [3]; [8]): Synergistic (synergistic when the FIC index is ≤0.5) | FIC index (P. aeruginosa PA01 [3]; [8]): 0.04 | Concentration of compound associated (P. aeruginosa PA01 [3]; [9]): 32 µM | Effect (P. aeruginosa PA01 [3]; [9]): Synergistic (synergistic when the FIC index is ≤0.5) | FIC index (P. aeruginosa PA01 [3]; [9]): 0.05 | Concentration of compound associated (P. aeruginosa PA01 [3]; [10]): 32 µM | Effect (P. aeruginosa PA01 [3]; [10]): Synergistic (synergistic when the FIC index is ≤0.5) | FIC index (P. aeruginosa PA01 [3]; [10]): 0.06 | Concentration of compound associated (P. aeruginosa PA01 [3]; [11]): 32 µM | Effect (P. aeruginosa PA01 [3]; [11]): Synergistic (synergistic when the FIC index is ≤0.5) | FIC index (P. aeruginosa PA01 [3]; [11]): 0.09 | Concentration of compound associated (P. aeruginosa PA01 [3]; [12]): 8 µM | Effect (P. aeruginosa PA01 [3]; [12]): Synergistic (synergistic when the FIC index is ≤0.5) | FIC index (P. aeruginosa PA01 [3]; [12]): 0.13 | Concentration of compound associated (P. aeruginosa PA01 [3]; [13]): 4 µM | Effect (P. aeruginosa PA01 [3]; [13]): Synergistic (synergistic when the FIC index is ≤0.5) | Concentration of compound associated (P. aeruginosa PA01 [3]; [14]): 2 µM | Effect (P. aeruginosa PA01 [3]; [14]): Synergistic (synergistic when the FIC index is ≤0.5) | FIC index (P. aeruginosa PA01 [3]; [14]): 0.5 | FIC index (P. aeruginosa PA01 [3]; combination with doxycycline): 0.09 | MIC of Amikacin in the presence of the compound (P. aeruginosa PA01 (wt); compound 10µM): 16 µg/mL | MIC of Ceftazidime in the presence of the compound (P. aeruginosa PA01 (wt); compound 10µM): 2 µg/mL | MIC of Ciprofloxacin in the presence of the compound (P. aeruginosa PA01 (wt); compound 10µM): 0.125 µg/mL | MIC of Ticarcillin in the presence of the compound (P. aeruginosa PA01 (wt); compound 10µM): 32 µg/mL | MIC of Amikacin in the presence of the compound (P. aeruginosa PA01 (wt); compound 30µM): 16 µg/mL | MIC of Ceftazidime in the presence of the compound (P. aeruginosa PA01 (wt); compound 30µM): 1 µg/mL | MIC of Ciprofloxacin in the presence of the compound (P. aeruginosa PA01 (wt); compound 30µM): ≤ 0.06 µg/mL | MIC of Ticarcillin in the presence of the compound (P. aeruginosa PA01 (wt); compound 30µM): 32 µg/mL | concentration needed to inhibit growth in the presence of doxycycline (P. aeruginosa PA01 [4]): ≥ 15.6 mg/L | concentration needed to inhibit growth in the presence of doxycycline (P. aeruginosa PA01 [4]; graphically determined on Fig 3): ≥ 30 µM | MIC of Amikacin in the presence of the compound ([5]; compound 10µM): 2 µg/mL | MIC of Ceftazidime in the presence of the compound ([5]; compound 10µM): 2 µg/mL | MIC of Ciprofloxacin in the presence of the compound ([5]; compound 10µM): 0.125 µg/mL | MIC of Ticarcillin in the presence of the compound ([5]; compound 10µM): 32 µg/mL | MIC of Amikacin in the presence of the compound ([5]; compound 30µM): 2 µg/mL | MIC of Ceftazidime in the presence of the compound ([5]; compound 30µM): 2 µg/mL | MIC of Ciprofloxacin in the presence of the compound ([5]; compound 30µM): ≤ 0.06 µg/mL | MIC of Ticarcillin in the presence of the compound ([5]; compound 30µM): 32 µg/mL | MIC of Amikacin in the presence of the compound ([6]; compound 10µM): 4 µg/mL | MIC of Ceftazidime in the presence of the compound ([6]; compound 10µM): 1 µg/mL | MIC of Ciprofloxacin in the presence of the compound ([6]; compound 10µM): 4 µg/mL | MIC of Ticarcillin in the presence of the compound ([6]; compound 10µM): 8 µg/mL | MIC of Amikacin in the presence of the compound ([6]; compound 30µM): 4 µg/mL | MIC of Ceftazidime in the presence of the compound ([6]; compound 30µM): 1 µg/mL | MIC of Ciprofloxacin in the presence of the compound ([6]; compound 30µM): 4 µg/mL | MIC of Ticarcillin in the presence of the compound ([6]; compound 30µM): 8 µg/mL
